PMC7270110, “Labeled oxytocin administered via the intranasal route reaches the brain in rhesus macaques” (Nature Communications, 2020)

Assay: Brain tissue concentration of administered d5OT by LC-MS/MS (terminal experiment)
Format: in vivo, rhesus macaques (Macaca mulatta)
Parameters: key to BRAIN d5OT concentration: ND: not detected; +: detected but not quantifiable
Conditions: for tissue level at time at 148 min: female
Description: Monkeys were divided into three groups, each with two monkeys; each group received the following in a terminal study at the 5th week: Group 1 (Monkeys ID# 1 and ID# 5) received 40 IU of d5OT IN, Group 2 received 80 IU of d5OT IN (Monkeys ID# 2 and ID# 4) and Group 3 received 80 IU of d5OT IV (Monkeys ID# 3 and ID# 6). Animals were perfused on average, 140 ± 7 (mean ± SD) min after d5OT administration (range = 135–149 min) (Table 4). Plasma and CSF were drawn just before administration of d5OT, at the midpoint between d5OT administration and perfusion (~60 min post-d5OT administration), and just before perfusion.
Brain tissue distribution of d5OT, as well as the endogenous concentrations of OT (d0OT), were measured in the following 12 brain regions: cerebellum, brainstem, striatum, amygdala, thalamus, visual cortex, insular cortex, hypothalamus, hippocampus, mPFC (Brodmann areas 32,25,24), dPFC (Brodmann areas 46,9,10), and OFC (Brodmann areas 14,13,12) (Tables 1, 2 and 3).
Brain tissue sample preparation: Samples (~1.5 mg per sample) were individually weighed and placed into 12 mm × 75 mm glass tubes containing 1.5 ml ice-cold 1 M acetic acid and 30 µl of OT-d10 internal standard. Tissues were homogenized on ice and the resulting homogenates were poured into individual 15 ml polystyrene tubes. The original glass tube was rinsed with 1 ml acetonitrile, and this rinse was added to the appropriate 15 ml polystyrene tube containing the homogenate. After all homogenizations were complete, 3 ml acetonitrile was added to each tube and extraction proceeded, as described for the plasma and CSF samples.
LC–MS/MS instrument parameters: Microtiter plates were prepared, as described above, and loaded onto a SIL-30ACMP autosampler set at 4 °C (Shimadzu). Forty microliters of each standard, QC or sample were injected onto an ACE Excel 2 C18-PFP 50 mm × 2.1 mm column (Advanced Chromatography Technologies, LTD, Aberdeen, Scotland) at 50 °C using reversed-phase chromatography. Mobile phase A was 0.1% formic acid in water and mobile phase B was 0.1% formic acid in ACN. The LC time gradient was created using two Nexera LC-30AD pumps (Shimadzu) running at 0.5 ml/min. Chromatography for serum and CSF samples began at 10% B and ended at 16% B at 3.6 min. One minute at 60% B was then required to wash the column, and the pumps re-equilibrated at 10% B for an additional 1.7 min (total run time ~6 min). Outside of the 1.55–3.55 min window during which OT eluted, a divert valve sent the LC effluent to waste.
Heated electrospray […] in positive mode, with scheduled multiple reaction monitoring (MRM) on a Shimadzu LCMS-8050, was used for detection of OT. The interface temperature was 270 °C and heat block temperature was 170 °C. Gas was supplied by a Peak Genius 1051 nitrogen and air generator (Peak Scientific, Inchinnan, UK). Nitrogen gas was used for nebulizing (1 L/min) and drying (8.2 L/min), while air was used for heating (7.8 L/min). A capillary B needle was used in the interface. Needle protrusion was set to 1.25 mm and probe distance was set to 1.0 mm; both were determined empirically. Argon (Airgas, Radnor, PA) was used for the collision-induced dissociation at 330 kPa. The MS/MS conditions for OT were optimized using the automated MRM optimization procedure in LabSolutions software (Shimadzu). We collected two MRM transitions each, for d0OT (1007.40 > 723.40 and 1007.40 > 285.30), d5OT (1012.00 > 723.40 and 1012.00 > 290.35), and d10OT (1017.70 > 723.35 and 1017.70 > 295.40); the first transition listed in each case was used for quantitation, while the second was used as a reference ion. Retention times for d0OT, d5OT, and d10OT were 3.290, 3.270, and 3.253 min, respectively.
The sensitivities of each assay within the method were determined by the lowest and highest concentration calibrators in the calibration curve. The lower limit of quantitation (LLOQ) for d0OT was 10 pg/ml (4 pg/col); the LLOQ for d5OT was 100 pg/ml (40 pg/col). […]

For `CC[C@H](C)[C@@H]1NC(=O)[C@H](Cc2ccc(O)cc2)NC(=O)[C@@H](N)CSSC[C@@H](C(=O)N2CCC[C@H]2C(=O)N[C@@H](CC(C)C)C(=O)NCC(N)=O)NC(=O)[C@H](CC(N)=O)NC(=O)[C@H](CCC(N)=O)NC1=O` [d5OT], the “Brain penetrance of d5OT in the striatum, % of the dose delivered IN” value (40 IU IN, assuming ~20% of delivered volume reaches upper nasal cavity) was roughly 0.03%, the “BRAIN d5OT concentration” value (Amygdala, 40 IU IN, monkey #5 (F), perfused 138 min post-dose, LC-MS/MS) was “+” and the “BRAIN d5OT concentration” value (Brainstem, 40 IU IN, monkey #1 (F), perfused 148 min post-dose, LC-MS/MS) was “+”. The “BRAIN d5OT concentration” value (Brainstem, 80 IU IN, monkey #2 (M), 136 min post-dose, molarity calculated for extracellular fluid volume (20% of brain volume)) was less than 1 nM, the “BRAIN d5OT concentration” value (Brainstem, 80 IU IN, monkey #2 (M), perfused 136 min post-dose, LC-MS/MS) was 0.14 pg/mg and the “BRAIN d5OT concentration” value (Brainstem, 80 IU IN, monkey #4 (M), 135 min post-dose, molarity calculated for extracellular fluid volume (20% of brain volume)) was 1 nM. For the same molecule, the “BRAIN d5OT concentration” value (Brainstem, 80 IU IV, monkey #6 (F), perfused 135 min post-dose, LC-MS/MS) was “+”, the “BRAIN d5OT concentration” value (Cerebellum, 80 IU IN, monkey #4 (M), perfused 135 min post-dose, LC-MS/MS) was “+” and the “BRAIN d5OT concentration” value (OFC, 80 IU IN, monkey #2 (M), 136 min post-dose, molarity calculated for extracellular fluid volume (20% of brain volume)) was 11 nM. The “BRAIN d5OT concentration” value (Striatum, 40 IU IN, monkey #1 (F), 148 min post-dose, molarity calculated for extracellular fluid volume (20% of brain volume)) was 13 nM, the “BRAIN d5OT concentration” value (Striatum, 40 IU IN, monkey #5 (F), perfused 138 min post-dose, LC-MS/MS) was “+” and the “BRAIN d5OT concentration” value (Thalamus, 40 IU IN, monkey #1 (F), 148 min post-dose, molarity calculated for extracellular fluid volume (20% of brain volume)) was 1 nM. For the same molecule, the “d5OT concentration in striatum (highest), comparable to that in the OFC” value (after IN d5OT, Table 1) was ~ 10 nM, the “BRAIN d5OT concentration” value (dPFC, 40 IU IN, monkey #5 (F), perfused 138 min post-dose, LC-MS/MS) was “+” and the “BRAIN d5OT concentration” value (dPFC, 80 IU IN, monkey #4 (M), perfused 135 min post-dose, LC-MS/MS) was “+”. The “BRAIN d5OT concentration” value (dPFC, 80 IU IV, monkey #6 (F), perfused 135 min post-dose, LC-MS/MS) was “+”, the tissue level at time at 148 min (rhesus monkey, brain (striatum), Striatum, 40 IU IN, monkey #1 (F), perfused 148 min post-dose, LC-MS/MS) was 2.41 ng/g and the tissue level at time at 148 min (rhesus monkey, brain (thalamus), Thalamus, 40 IU IN, monkey #1 (F), perfused 148 min post-dose, LC-MS/MS) was 0.23 ng/g. For the same molecule, the “BRAIN d5OT concentration” value (mPFC, 80 IU IV, monkey #6 (F), perfused 135 min post-dose, LC-MS/MS) was “+”, the tissue level at time at 136 min (male, rhesus monkey, brain (OFC), OFC, 80 IU IN, monkey #2 (M), perfused 136 min post-dose, LC-MS/MS) was 2.04 ng/g and the tissue level at time at 2.25 h (male, rhesus monkey, brain (brainstem), Brainstem, 80 IU IN, monkey #4 (M), perfused 135 min post-dose, LC-MS/MS) was 0.24 ng/g. For the same molecule, the “Brain concentrations of d5OT after IN delivery” value (on the order of, Table 1) was no less than 1 nM.
